Legend:
[1] = Drug concentration in mouse plasma at 10 mg/kg, po measured at 12 hrs by LC-MS/MS analysis; assay type: ADME, organism-based
Cytochrome P450 2C19 = Cytochrome P450 2C19 (Homo sapiens, UniProt P33261); experiment: Inhibition of CYP2C19 (unknown origin); assay type: ADME
[2] = target: C-C chemokine receptor type 7 (Homo sapiens) (UniProt P32248); experiment: Inhibition of human CCR7 at 10 uM relative to control
[3] = target: C-C chemokine receptor type 4 (Homo sapiens) (UniProt P51679); experiment: Inhibition of human CCR4 at 10 uM relative to control
Chain of C-C chemokine receptor type 4 (Homo sapiens) (P51679 whole entry): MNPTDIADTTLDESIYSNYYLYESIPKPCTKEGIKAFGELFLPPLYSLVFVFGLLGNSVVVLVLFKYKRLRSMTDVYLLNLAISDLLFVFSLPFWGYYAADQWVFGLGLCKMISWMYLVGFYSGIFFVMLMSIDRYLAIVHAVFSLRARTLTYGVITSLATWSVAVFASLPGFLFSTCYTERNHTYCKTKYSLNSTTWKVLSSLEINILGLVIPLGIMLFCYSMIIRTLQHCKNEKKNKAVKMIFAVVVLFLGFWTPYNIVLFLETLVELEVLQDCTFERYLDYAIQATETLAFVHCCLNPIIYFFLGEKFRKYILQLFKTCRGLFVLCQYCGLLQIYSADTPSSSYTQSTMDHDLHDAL

Cytochrome P450 2C9 = Cytochrome P450 2C9 (Homo sapiens, UniProt P11712); experiment: Inhibition of CYP2C9 (unknown origin); assay type: ADME
Chain of Cytochrome P450 2C9 (P11712 whole entry): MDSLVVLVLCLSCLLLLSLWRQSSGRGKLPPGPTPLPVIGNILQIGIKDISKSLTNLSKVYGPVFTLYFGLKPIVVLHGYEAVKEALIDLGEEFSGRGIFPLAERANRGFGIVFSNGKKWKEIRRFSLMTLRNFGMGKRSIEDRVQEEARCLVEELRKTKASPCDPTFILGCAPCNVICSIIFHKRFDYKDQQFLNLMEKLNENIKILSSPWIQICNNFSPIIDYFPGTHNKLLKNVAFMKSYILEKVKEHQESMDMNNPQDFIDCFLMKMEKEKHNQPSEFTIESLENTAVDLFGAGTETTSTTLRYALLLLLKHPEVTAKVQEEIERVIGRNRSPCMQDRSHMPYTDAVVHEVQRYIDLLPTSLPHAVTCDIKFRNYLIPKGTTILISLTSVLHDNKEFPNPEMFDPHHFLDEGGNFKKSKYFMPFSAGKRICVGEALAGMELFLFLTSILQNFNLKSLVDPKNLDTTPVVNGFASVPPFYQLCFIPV

Mu-type opioid receptor = Mu-type opioid receptor (Homo sapiens, UniProt P35372); experiment: Inhibition of mu opioid receptor (unknown origin)
Chain of Mu-type opioid receptor (P35372 whole entry): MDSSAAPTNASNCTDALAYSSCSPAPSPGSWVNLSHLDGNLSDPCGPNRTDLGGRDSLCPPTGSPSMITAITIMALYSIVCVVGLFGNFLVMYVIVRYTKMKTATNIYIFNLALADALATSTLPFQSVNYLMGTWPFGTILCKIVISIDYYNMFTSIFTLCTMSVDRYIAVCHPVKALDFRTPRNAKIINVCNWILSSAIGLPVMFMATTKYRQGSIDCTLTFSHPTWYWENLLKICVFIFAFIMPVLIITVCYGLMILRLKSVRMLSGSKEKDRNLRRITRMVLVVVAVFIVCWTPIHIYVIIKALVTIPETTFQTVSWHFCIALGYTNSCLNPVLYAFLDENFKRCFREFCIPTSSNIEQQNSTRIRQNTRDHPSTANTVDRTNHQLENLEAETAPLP

[4] = Cytotoxicity against human TZM-bl cells assessed as reduction in cell viability incubated for 4 hrs by […] assay; assay type: toxicity, cell-based; details: read-out: TC50
Homo sapiens [5] = species on record: Homo sapiens; experiment: Selectivity index, ratio of IC50 for inhibition of recombinant human CYP1A2 to IC50 for antagonist activity at human CXCR4 receptor expressed in CCRF-CEM cells; assay type: cell-based
[6] = AUC(0 to 8 h) in mouse plasma at 10 mg/kg, po measured at 24 hrs by LC-MS/MS analysis; assay type: ADME, organism-based; design: route oral, dose 10 mg/kg, time 24 hrs; details: in vivo
Cytochrome P450 3A4 = Cytochrome P450 3A4 (Homo sapiens, UniProt P08684); experiment: Inhibition of CYP3A4 (unknown origin); assay type: ADME
Chain of Cytochrome P450 3A4 (P08684 whole entry): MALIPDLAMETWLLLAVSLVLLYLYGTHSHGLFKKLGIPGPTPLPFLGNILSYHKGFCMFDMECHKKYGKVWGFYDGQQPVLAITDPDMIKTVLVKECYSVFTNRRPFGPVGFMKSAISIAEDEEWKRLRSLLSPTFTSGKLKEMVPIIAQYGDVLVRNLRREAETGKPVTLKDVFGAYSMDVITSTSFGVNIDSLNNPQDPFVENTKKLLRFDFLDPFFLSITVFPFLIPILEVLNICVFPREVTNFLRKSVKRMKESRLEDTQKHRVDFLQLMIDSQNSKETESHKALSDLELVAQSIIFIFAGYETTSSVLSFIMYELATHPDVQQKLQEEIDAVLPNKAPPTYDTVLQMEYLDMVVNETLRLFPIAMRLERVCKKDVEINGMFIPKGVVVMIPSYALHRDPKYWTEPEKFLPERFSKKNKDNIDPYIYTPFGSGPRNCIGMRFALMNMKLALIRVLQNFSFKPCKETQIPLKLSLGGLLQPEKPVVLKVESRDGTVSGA

[7] = Cmax in mouse at 3 mg/kg, iv measured after 8 hrs by LC-MS/MS analysis; assay type: ADME, organism-based; design: route intravenous, time 8 hrs, dose 3 mg/kg; details: in vivo
[8] = Oral bioavailability in mouse at 10 mg/kg measured at 24 hrs by LC-MS/MS analysis; assay type: ADME, organism-based; details: in vivo
[9] = Drug concentration in mouse plasma at 3 mg/kg, po measured at 12 hrs by LC-MS/MS analysis; assay type: ADME, organism-based
Homo sapiens [10] = species on record: Homo sapiens; experiment: Selectivity index, ratio of IC50 for inhibition of recombinant human CYP2D6 to IC50 for antagonist activity at human CXCR4 receptor expressed in CCRF-CEM cells; assay type: cell-based
Homo sapiens [11] = species on record: Homo sapiens; experiment: Selectivity index, ratio of IC50 for inhibition of recombinant human CYP3A4 to IC50 for antagonist activity at human CXCR4 receptor expressed in CCRF-CEM cells; assay type: cell-based
[12] = Drug concentration in mouse plasma at 30 mg/kg, po measured at 12 hrs by LC-MS analysis; assay type: ADME, organism-based
Homo sapiens [13] = species on record: Homo sapiens; experiment: Selectivity index, ratio of IC50 for inhibition of recombinant human CYP2C8 to IC50 for antagonist activity at human CXCR4 receptor expressed in CCRF-CEM cells; assay type: cell-based
[14] = target: Voltage-gated inwardly rectifying potassium channel KCNH2 (Homo sapiens, UniProt Q12809); experiment: Inhibition of human ERG by [3H]]Astemizole binding assay; assay type: toxicity
Chain of Voltage-gated inwardly rectifying potassium channel KCNH2 (Q12809 whole entry): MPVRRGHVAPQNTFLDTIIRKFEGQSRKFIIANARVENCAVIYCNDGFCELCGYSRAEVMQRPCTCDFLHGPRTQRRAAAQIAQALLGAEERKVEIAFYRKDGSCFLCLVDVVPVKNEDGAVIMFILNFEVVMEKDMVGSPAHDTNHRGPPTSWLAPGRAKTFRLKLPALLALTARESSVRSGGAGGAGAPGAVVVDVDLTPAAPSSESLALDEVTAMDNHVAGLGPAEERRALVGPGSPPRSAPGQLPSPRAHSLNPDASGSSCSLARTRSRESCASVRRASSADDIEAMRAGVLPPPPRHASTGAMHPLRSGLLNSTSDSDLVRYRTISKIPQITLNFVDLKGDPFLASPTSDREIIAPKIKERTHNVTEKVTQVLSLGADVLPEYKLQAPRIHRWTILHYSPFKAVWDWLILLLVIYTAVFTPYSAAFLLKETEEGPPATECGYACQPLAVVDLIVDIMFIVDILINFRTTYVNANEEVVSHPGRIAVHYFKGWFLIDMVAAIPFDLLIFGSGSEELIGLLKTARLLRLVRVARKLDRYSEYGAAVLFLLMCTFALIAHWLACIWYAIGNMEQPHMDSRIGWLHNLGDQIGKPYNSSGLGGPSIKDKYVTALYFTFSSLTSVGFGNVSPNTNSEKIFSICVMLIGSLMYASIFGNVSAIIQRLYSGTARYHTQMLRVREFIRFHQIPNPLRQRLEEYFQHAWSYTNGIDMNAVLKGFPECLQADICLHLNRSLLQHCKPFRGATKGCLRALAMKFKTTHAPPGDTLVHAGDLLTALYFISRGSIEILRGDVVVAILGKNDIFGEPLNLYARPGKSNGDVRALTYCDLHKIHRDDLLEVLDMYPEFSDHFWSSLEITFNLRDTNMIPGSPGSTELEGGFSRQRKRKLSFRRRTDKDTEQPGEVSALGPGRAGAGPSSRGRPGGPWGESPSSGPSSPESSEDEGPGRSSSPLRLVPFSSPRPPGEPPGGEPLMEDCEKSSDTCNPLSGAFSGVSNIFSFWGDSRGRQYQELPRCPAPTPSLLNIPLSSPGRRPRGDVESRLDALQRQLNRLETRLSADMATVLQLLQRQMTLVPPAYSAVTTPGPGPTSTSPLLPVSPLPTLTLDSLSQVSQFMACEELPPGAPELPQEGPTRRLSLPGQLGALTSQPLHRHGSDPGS

[15] = Permeability of compound at pH 7.4 incubated for 4 hrs by PAMPA assay; assay type: ADME; details: read-out: permeability
[16] = Metabolic stability in human liver microsomes assessed compound remaining measured after 10 mins in presence of NADPH; assay type: ADME, Microsome; details: read-out: Stability
[17] = Antagonist activity at mAChR (unknown origin) expressed in CCRF-CEM cells assessed as inhibition of calcium release by calcium flux assay; assay type: cell-based; details: Homo sapiens
[18] = Antagonist activity at human CXCR4 receptor expressed in CCRF-CEM cells assessed as inhibition of CXCL12-induced calcium release by calcium flux assay; assay type: cell-based
Homo sapiens [19] = species on record: Homo sapiens; experiment: Selectivity index, ratio of IC50 for inhibition of alpha 2C adrenergic receptor (unknown origin) to IC50 for antagonist activity at human CXCR4 receptor expressed in CCRF-CEM cells; assay type: cell-based
[20] = AUC(0 to 8 h) in mouse plasma at 3 mg/kg, iv measured at 24 hrs by LC-MS/MS analysis; assay type: ADME, organism-based; design: route intravenous, time 24 hrs, dose 3 mg/kg; details: in vivo
[21] = target: T1, Muscarinic acetylcholine receptor M2 (Homo sapiens, UniProt P08172); experiment: Inhibition of M2 mAChR receptor (unknown origin)
T1 sequence (P08172 whole entry): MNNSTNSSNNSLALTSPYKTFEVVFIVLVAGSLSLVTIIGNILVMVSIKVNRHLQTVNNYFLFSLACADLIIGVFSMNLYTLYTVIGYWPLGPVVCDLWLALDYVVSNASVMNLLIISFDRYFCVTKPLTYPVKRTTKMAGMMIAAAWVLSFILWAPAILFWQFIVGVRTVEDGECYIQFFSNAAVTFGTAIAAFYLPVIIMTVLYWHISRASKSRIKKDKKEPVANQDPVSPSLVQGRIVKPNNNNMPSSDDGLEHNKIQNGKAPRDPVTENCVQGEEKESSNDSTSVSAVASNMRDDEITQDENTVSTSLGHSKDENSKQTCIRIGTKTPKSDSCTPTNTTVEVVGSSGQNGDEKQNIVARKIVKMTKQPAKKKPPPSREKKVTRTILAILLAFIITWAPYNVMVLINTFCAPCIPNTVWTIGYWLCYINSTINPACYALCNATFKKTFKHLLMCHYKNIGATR

[22] = Oral bioavailability in mouse at 3 mg/kg measured at 24 hrs by LC-MS/MS analysis; assay type: ADME, organism-based; details: in vivo
[23] = Metabolic stability in mouse liver microsomes assessed compound remaining measured after 10 mins in presence of NADPH; assay type: ADME, Microsome; details: read-out: Stability
[24] = AUC(0 to 8 h)in mouse plasma at 3 mg/kg, po measured at 24 hrs by LC-MS/MS analysis; assay type: ADME, organism-based; design: route oral, dose 3 mg/kg, time 24 hrs; details: in vivo
[25] = Permeability of compound at pH 5.5 incubated for 4 hrs by PAMPA assay; assay type: ADME; details: read-out: permeability
Cytochrome P450 2C8 = Cytochrome P450 2C8 (Homo sapiens, UniProt P10632); experiment: Inhibition of CYP2C8 (unknown origin); assay type: ADME
Chain of Cytochrome P450 2C8 (P10632 whole entry): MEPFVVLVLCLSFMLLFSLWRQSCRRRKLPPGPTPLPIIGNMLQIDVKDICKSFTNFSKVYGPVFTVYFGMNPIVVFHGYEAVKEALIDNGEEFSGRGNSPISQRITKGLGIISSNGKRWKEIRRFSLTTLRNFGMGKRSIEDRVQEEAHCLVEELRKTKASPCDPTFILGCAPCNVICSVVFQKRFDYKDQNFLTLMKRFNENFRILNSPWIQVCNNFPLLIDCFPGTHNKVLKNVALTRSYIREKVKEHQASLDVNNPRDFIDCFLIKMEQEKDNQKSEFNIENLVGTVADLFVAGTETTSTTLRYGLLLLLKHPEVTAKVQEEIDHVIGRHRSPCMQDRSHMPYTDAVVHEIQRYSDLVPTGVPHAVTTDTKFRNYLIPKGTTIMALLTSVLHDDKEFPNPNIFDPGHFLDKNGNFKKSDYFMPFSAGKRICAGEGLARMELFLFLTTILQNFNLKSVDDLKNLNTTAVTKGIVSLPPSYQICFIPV

Homo sapiens [26] = species on record: Homo sapiens; experiment: Selectivity index, ratio of IC50 for inhibition of mu opioid receptor (unknown origin) to IC50 for antagonist activity at human CXCR4 receptor expressed in CCRF-CEM cells; assay type: cell-based
Cytochrome P450 2D6 = Cytochrome P450 2D6 (Homo sapiens, UniProt P10635); experiment: Inhibition of recombinant human CYP2D6 using AMMC as substrate preincubated for 30 mins followed by substrate addition measured after 45 mins by fluorescence based assay; assay type: ADME
Homo sapiens [27] = species on record: Homo sapiens; experiment: Selectivity index, ratio of IC50 for inhibition of hERG receptor (unknown origin) to IC50 for antagonist activity at human CXCR4 receptor expressed in CCRF-CEM cells; assay type: cell-based
[28] = target: C-X-C chemokine receptor type 2 (Homo sapiens) (UniProt P25025); experiment: Inhibition of human CXCR2 at 10 uM relative to control
Chain of C-X-C chemokine receptor type 2 (Homo sapiens) (P25025 whole entry): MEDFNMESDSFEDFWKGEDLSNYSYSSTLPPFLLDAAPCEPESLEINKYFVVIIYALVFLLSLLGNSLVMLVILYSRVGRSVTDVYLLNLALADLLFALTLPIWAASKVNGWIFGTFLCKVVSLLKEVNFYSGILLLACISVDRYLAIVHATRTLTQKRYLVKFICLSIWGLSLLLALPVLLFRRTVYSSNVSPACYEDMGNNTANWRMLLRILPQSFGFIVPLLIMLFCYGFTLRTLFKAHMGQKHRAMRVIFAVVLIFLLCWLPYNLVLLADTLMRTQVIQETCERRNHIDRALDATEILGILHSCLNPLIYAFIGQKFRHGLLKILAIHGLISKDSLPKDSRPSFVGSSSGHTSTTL

[29] = target: C-X-C chemokine receptor type 1 (Homo sapiens) (UniProt P25024); experiment: Inhibition of human CXCR1 at 10 uM relative to control
Chain of C-X-C chemokine receptor type 1 (Homo sapiens) (P25024 whole entry): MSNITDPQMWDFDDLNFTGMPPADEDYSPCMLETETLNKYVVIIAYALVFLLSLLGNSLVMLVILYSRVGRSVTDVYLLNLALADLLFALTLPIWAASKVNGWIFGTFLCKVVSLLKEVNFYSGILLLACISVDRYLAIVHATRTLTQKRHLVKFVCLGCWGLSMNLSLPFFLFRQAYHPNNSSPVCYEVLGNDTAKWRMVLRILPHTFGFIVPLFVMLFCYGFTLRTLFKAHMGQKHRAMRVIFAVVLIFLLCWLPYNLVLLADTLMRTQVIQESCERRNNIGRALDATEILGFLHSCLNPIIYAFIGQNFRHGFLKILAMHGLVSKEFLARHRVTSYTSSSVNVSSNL

Homo sapiens [30] = species on record: Homo sapiens; experiment: Selectivity index, ratio of IC50 for antagonist activity at mAChR (unknown origin) to IC50 for antagonist activity at human CXCR4 receptor
[31] = target: Neuronal acetylcholine receptor subunit alpha-7 (Homo sapiens, UniProt P36544); experiment: Inhibition of alpha7 nicotinic acetylcholine receptor (unknown origin)
Homo sapiens [32] = species on record: Homo sapiens; experiment: Selectivity index, ratio of IC50 for Inhibition of human ERG to IC50 for antagonist activity at human CXCR4 receptor expressed in CCRF-CEM cells; assay type: cell-based

Chain of Cytochrome P450 2C19 (P33261 whole entry): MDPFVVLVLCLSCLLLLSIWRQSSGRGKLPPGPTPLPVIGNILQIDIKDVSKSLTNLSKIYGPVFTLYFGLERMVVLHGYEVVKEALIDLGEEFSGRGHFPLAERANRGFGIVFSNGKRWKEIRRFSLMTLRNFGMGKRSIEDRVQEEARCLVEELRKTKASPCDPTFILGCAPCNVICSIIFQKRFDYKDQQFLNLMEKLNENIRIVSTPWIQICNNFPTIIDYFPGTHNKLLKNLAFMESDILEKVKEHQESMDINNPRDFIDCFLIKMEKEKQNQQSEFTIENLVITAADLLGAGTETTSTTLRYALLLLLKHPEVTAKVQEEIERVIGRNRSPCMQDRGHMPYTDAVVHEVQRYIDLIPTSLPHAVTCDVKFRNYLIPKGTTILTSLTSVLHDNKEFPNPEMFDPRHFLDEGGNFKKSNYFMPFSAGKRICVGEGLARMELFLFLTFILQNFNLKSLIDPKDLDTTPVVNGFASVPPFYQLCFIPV
Chain of C-C chemokine receptor type 7 (Homo sapiens) (P32248 whole entry): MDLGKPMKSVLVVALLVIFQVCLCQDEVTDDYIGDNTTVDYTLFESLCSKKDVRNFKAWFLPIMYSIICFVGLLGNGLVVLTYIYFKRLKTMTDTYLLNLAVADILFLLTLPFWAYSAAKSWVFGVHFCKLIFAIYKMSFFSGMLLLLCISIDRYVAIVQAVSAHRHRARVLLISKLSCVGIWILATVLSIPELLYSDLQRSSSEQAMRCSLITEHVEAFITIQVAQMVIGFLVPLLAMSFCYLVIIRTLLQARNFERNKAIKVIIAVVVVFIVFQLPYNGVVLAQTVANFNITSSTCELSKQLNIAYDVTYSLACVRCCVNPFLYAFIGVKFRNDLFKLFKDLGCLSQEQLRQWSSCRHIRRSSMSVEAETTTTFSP

## CN(CCCCN(C[C@H]1Cc2ncccc2CN1)[C@H]1CCCc2cccnc21)C1CCC(F)(F)CC1
[1]
  concentration at 12 h: 14.3 ng/mL
Cytochrome P450 2C19
  IC50: > 20 µM
[2]
  inhibition: < 5%
[3]
  inhibition: < 5%
Cytochrome P450 2C9
  IC50: > 20 µM
Mu-type opioid receptor
  IC50: > 30 µM
[4]
  CC50 at 4 h: > 10 µM
Homo sapiens [5]
  Selectivity Index: > 710
[6]
  AUC: 190 h/ng/mL
Cytochrome P450 3A4
  IC50: > 20 µM
[7]
  Cmax: 116 ng/mL
[8]
  bioavailability: 21.5%
[9]
  concentration at 12 h: 1.5 ng/mL
Homo sapiens [10]
  Selectivity Index: 540
Homo sapiens [11]
  Selectivity Index: > 710
[12]
  concentration at 12 h: 34.8 ng/mL
Homo sapiens [13]
  Selectivity Index: > 710
[14]
  IC50: 17 µM
[15]
  Papp at 4 h: 31 ×10⁻⁶ cm/s
[16]
  remaining at 10 min: 61%
[17]
  IC50: > 17 µM
[18]
  IC50: 0.024 µM
Homo sapiens [19]
  Selectivity Index: > 1000
[20]
  AUC: 265 h/ng/mL
[21]
  IC50: > 30 µM
[22]
  bioavailability: 12.9%
[23]
  remaining at 10 min: 35%
[24]
  AUC: 34.3 h/ng/mL
[25]
  Papp at 4 h: 1.5 ×10⁻⁶ cm/s
Cytochrome P450 2C8
  IC50: > 20 µM
Homo sapiens [26]
  Selectivity Index: > 1000
Cytochrome P450 2D6
  IC50: 13 µM
Homo sapiens [27]
  Selectivity Index: > 1000
[28]
  inhibition: < 5%
[29]
  inhibition: < 5%
Homo sapiens [30]
  Selectivity Index: > 710
[31]
  IC50: > 30 µM
Homo sapiens [32]
  Selectivity Index: 710
